Test results published in patent US10112931B2, “3-pyrimidin-4-yl-oxazolidin-2-ones as inhibitors of mutant IDH” (NOVARTIS AG, priority 2013, dated 2018).
Structures can show the parent of a compound that is named as a salt.

Legend:
Format in all cases: in vitro ADME
[1] = Metabolic stability in liver microsomes, Method II, human
Experimental: Determination of Metabolic Stability in Liver Microsomes—Method II
The in vitro metabolic stability assay was performed in a 96-deep-well plate with incubation at 37° C. 10 mM DMSO stock solution of the test compound was diluted 1:20 in acetonitrile, followed by an additional 1:10 dilution in 100 mM potassium phosphate buffer (KPi) to yield a final reaction concentration of 1 μM. Immediately prior to the start of the experiment, respective animal or human liver microsomes (male Sprague-dawley rat, male CD-1 mouse, or pooled human liver microsomes) were diluted in 100 mM KPi to 1.25 mg/mL liver microsomal protein. 290 μL of cofactor solution (1.7 mM NADPH, 1.7 mM UDPGA, 3.4 mM MgCl in 100 mM KPi) was added to 200 μL of microsomal protein for a final volume of 490 μL. The reaction was initiated by adding 10 μL of the 50 μM test solution to 490 μL of microsomal protein for a final volume 500 μL enzyme-compound mixture.
At 0, 5, 15 and 30 minute time points in the reaction, reaction aliquots (75 μL) were removed and the reactions were terminated by the addition of 50:50 acetonitrile/methanol solution (75 μL) containing a mass spectrometry internal standard (0.5 μM glyburide). The samples were centrifuged at 4000 RPM for 10 minutes. Supernatants (15 μL aliquots) were transferred to a new plate where each well contains 90 μL of deionized water. The supernatants solution were analyzed by UPLC/MS/MS for quantitation of parent remaining compound under multiple reactions monitoring mode (MRM) in positive mode. The percentage of compound remaining, relative to 0 minutes, was used to estimate in vitro elimination-rate constant (k) which was used to calculate in vitro metabolic clearance rates.
Analysis of the samples was performed on an ultra-performance liquid chromatography-tandem mass spectrometry (UPLC/MS/MS) system consisting of an AB Sciex Qtrap 5500 mass spectrometer, AB Sciex Turbo V ion source, Waters Acquity Sample Organizer, Waters Acquity Column manager, Waters Acquity Sample manager, and a Waters Acquity Binary Solvent Manager. Chromatographic separation of analyte and internal standard was achieved using a reverse phase C-18 column (50×2.1 mm, 1.7 μm, Acquity UPLC BEH C-18) with the following UPLC mobile phases and elution gradient: […]
UPLC mobile phase A: 0.25% formic acid in 5% methanol; mobile phase B: 0.25% formic acid in […].
LC gradient and flow rate are listed below: […]
The injection volume was 5 μL. Compounds were detected using Analyst 1.5.1 software which collects intensity data for all fragments related to the molecular weight of the test compound. After collection of the raw data, the software identifies and integrates the peak of the strongest intensity.
Each microsomal elimination rate, k, was based on a 4-point elimination curve tested in duplicates. LC-MS/MS raw data for a reaction plate was returned as integrated analyte peak areas for the test compound and internal standard used in the quench solution for the reaction to enable use of analyte:internal standard peak area ratios (PARs) for all data comparisons. The reaction time point (e.g. 0, 5, 15 and 30 minutes) was plotted versus the natural logarithm of percent test compound remaining relative to 0 minutes (based on relative PAR). The slope of this clearance plot, k, was used to calculate the in vitro half-life.
[formula] The intrinsic clearance value, CLint (expressed as μL/min/mg microsomal protein) calculation is shown below:
[formula] […]

[2] = Metabolic stability in liver microsomes, Method I, rat
Experimental: The in vitro metabolic stability assay was performed in a 96-well glass plate with shaking incubation at 37° C. A 10 mM DMSO stock solution of the test compound was sequentially diluted 1:1000 to yield a final reaction concentration of 1 μM in 50 mM KPi. […] 30 μL of the 10 μM solution containing the test compound was added to 120 μL of microsomal protein for 150 μL enzyme-compound mixture. The reaction was initiated by adding 150 μL of cofactor solution (2 mM NADPH, 4 mM MgCl in 50 mM KPi) to the enzyme-compound mixture, and the final reaction concentrations are listed in the table below.
At 0, 5, 10 and 30 minute time points in the reaction, reaction aliquots (50 μL) were removed and the reactions were terminated by the addition of acetonitrile (150 μL) containing a mass spectrometry internal standard (1 μM glyburide). The samples were centrifuged and the supernatants analyzed by LC-MS/MS for quantization of remaining compound. […]
Mobile phase A consisted of purified water containing 0.01% formic acid. […] Compounds were detected using the Thermo QuikQuan software which collects intensity data for all fragments related to the molecular weight of the test compound. […]

[3] = Metabolic stability in liver microsomes, Method II, mouse
Experimental: The in vitro metabolic stability assay was performed in a 96-deep-well plate with incubation at 37° C. 10 mM DMSO stock solution of the test compound was diluted 1:20 in acetonitrile, followed by an additional 1:10 dilution in 100 mM potassium phosphate buffer (KPi) to yield a final reaction concentration of 1 μM. […] 290 μL of cofactor solution (1.7 mM NADPH, 1.7 mM UDPGA, 3.4 mM MgCl in 100 mM KPi) was added to 200 μL of microsomal protein for a final volume of 490 μL. The reaction was initiated by adding 10 μL of the 50 μM test solution to 490 μL of microsomal protein for a final volume 500 μL enzyme-compound mixture.
UPLC mobile phase A: 0.25% formic acid in 5% methanol; mobile phase B: 0.25% formic acid in 95% water.
Each microsomal elimination rate, k, was based on a 4-point elimination curve tested in duplicates. LC-MS/MS raw data for a reaction plate was returned as integrated analyte peak areas for the test compound and internal standard used in the quench solution for the reaction to enable use of analyte:internal standard peak area ratios (PARs) for all data comparisons. […]
[formula] The intrinsic clearance value, CLint (expressed as μL/min/mg microsomal protein) calculation is shown below: […]

Row | Human microsomal stability CLint [1] | Rat microsomal stability CLint [2] | Mouse microsomal stability CLint [3] | Structure (SMILES)
1 | 16.79 µL/min/mg | 44.66 µL/min/mg |  | C[C@H](Nc1nccc(N2C(=O)OCC2[C@H](C)F)n1)c1cn(-c2ccc(C(F)F)cc2)cn1 (stereo partly shown) [456 as TFA salt]
2 | 31.15 µL/min/mg |  | 51.00 µL/min/mg | C[C@H](Nc1nccc(N2C(=O)OC[C@@H]2[C@@H](C)N)n1)c1cnc(-c2ccc(Cl)cc2)s1 [Example 380, (S)-4-((R)-1-aminoethyl)-3-(2-(((S)-1-(2-(4-chlorophenyl)thiazol-5-yl)ethyl)amino)pyrimidin-4-yl)oxazolidin-2-one]
3 | <7.70 µL/min/mg |  | 33.13 µL/min/mg | C[C@H](Nc1nccc(N2C(=O)OC[C@@H]2[C@H](C)F)n1)c1cn(-c2ccc(F)cc2)cn1 [Example 401, (R)-4-((S)-1-fluoroethyl)-3-(2-(((S)-1-(1-(4-fluorophenyl)-1H-imidazol-4-yl)ethyl)amino)pyrimidin-4-yl)oxazolidin-2-one]
4 | <7.70 µL/min/mg |  | 18.72 µL/min/mg | C[C@H](Nc1nccc(N2C(=O)OC[C@@H]2CF)n1)c1cn(-c2ccc(Cl)cc2)cn1 [Example 404, (R)-3-(2-(((S)-1-(1-(4-chlorophenyl)-1H-imidazol-4-yl)ethyl)amino)pyrimidin-4-yl)-4-(fluoromethyl)oxazolidin-2-one]
5 | 28.27 µL/min/mg |  | 35.45 µL/min/mg | C[C@H](Nc1nccc(N2C(=O)OC[C@@H]2[C@H](C)F)n1)c1ncc(-c2ccnc(C(F)(F)F)c2)cc1F [Example 463, (R)-3-(2-(((S)-1-(5-fluoro-2′-(trifluoromethyl)-[3,4′-bipyridin]-6-yl)ethyl)amino)pyrimidin-4-yl)-4-((S)-1-fluoroethyl)oxazolidin-2-one]
